Data published in patent publication US12559470B2, “FGFR inhibitors and uses thereof” (University of Southern California, priority 2018, dated 2026).
pIC50: −log10 of the molar value.

Target: FGFR2 (Homo sapiens, UniProt P21802)
Test: In vitro inhibitory assay (IC50) against FGFR2
Format: biochemical
Method: The efficacy of the compounds to inhibit the kinase activity of FGFRs was measured by the determination of the IC50 value.
The results are listed in Table 4 expressed as IC50 values (the concentration of compound at which 50% of the enzyme activity is inhibited).

Sequence of FGFR2 (P21802 22-821): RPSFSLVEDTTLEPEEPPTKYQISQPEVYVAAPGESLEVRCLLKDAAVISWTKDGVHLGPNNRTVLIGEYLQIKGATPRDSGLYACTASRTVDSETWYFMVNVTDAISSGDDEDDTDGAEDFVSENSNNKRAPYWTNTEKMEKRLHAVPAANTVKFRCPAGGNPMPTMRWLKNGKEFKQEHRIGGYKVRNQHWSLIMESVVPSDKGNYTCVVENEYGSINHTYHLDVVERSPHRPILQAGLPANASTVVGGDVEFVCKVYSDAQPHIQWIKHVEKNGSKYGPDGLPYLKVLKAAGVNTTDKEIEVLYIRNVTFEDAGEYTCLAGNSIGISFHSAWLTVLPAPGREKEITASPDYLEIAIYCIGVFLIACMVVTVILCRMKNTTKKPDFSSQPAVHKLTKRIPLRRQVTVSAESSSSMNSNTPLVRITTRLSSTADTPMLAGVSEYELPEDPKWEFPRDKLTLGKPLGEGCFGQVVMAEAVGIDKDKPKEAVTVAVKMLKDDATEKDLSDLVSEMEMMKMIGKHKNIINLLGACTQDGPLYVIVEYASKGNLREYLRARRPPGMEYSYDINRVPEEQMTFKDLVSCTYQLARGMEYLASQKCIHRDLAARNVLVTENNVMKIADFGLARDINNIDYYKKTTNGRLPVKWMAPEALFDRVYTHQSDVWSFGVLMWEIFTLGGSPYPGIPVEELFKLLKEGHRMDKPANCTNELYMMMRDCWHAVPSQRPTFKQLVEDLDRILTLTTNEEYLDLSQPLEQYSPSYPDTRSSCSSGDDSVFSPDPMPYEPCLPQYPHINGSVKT

Structure (SMILES): CCN1CCN(c2ccc(Nc3cc(-c4cccnc4Nc4c(Cl)c(OC)cc(OC)c4Cl)ncn3)cc2)CC1 [Compound 1, 6-(2-((2,6-dichloro-3,5-dimethoxyphenyl)amino)pyridin-3-yl)-N-(4-(4-ethylpiperazin-1-yl)phenyl)pyrimidin-4-amine]
- pIC50: 8.22
